Assay [1] relates to 3xTg-AD mice. Briefly: Novel object recognition test. The class given is in vivo, mouse. Particulars: 3xTg-AD offspring, 3-4 months; P021 diet 60 nmol/g E8-PND21; 20-min delay, 5-min test phase; 3xTg-Vh vs 3xTg-P021 P = 0.0007. Here is the method: Pregnant 3xTg-AD and wild-type (WT) mice were treated with compound P021 in mouse chow, or as control with vehicle feed from gestational day 8 (E8) till their offspring/pups reached PND21, at which point the offspring were separated from their mother and put on normal mouse chow (Fig. 1). There were four study groups of mice, as follows: offspring of WT treated with vehicle diet (WT-Vh, n = 10), offspring of WT treated with P021 diet (WT-P021, n = 17), offspring of 3xTg-AD treated with vehicle diet (3xTg-Vh, n = 12), and offspring of 3xTg-AD treated with P021 diet (3xTg-P021, n = 18). Elevated plus maze, novel object recognition test, and Morris water maze were carried out consecutively from postnatal day 90 with all of mice. About 50% (4 animals/group) of the female offspring (n = 7–8 animals/group) were sacrificed at 4 months of age and the remaining 50% (3–4 animals/group) at 22 months of age. […]
The novel object recognition memory task has been used to evaluate hippocampus-dependent memory in rodents through an evaluation of the differences in the exploration time of novel and familiar objects. […] The object discrimination index (DI) during the test phase was calculated as DI = [(time spent exploring the new object − time spent exploring the old object)/(time spent exploring both old and new objects)] × 100%.

For assay [2], the system named is 3xTg-AD mice. Particulars: chronic treatment, moderate and severe stages of the pathology; cited from earlier work. An excerpt:
(§1) Chronic treatment with P021 ...

A further assay deals with aged Fisher rats. Particulars: oral administration; cited from earlier work.
Description: as §1

A further assay has as its system GFAP. Briefly: GFAP immunofluorescence, CA1. In kind it is in vivo, mouse. Particulars: P021 diet E8-PND21. On the procedure: (§2) We treated 2- to 3-month-old pregnant 3xTg-AD and WT mothers with compound P021 in mouse chow, or with vehicle feed as control at E8 until their offspring/pups reached PND21, at which point the offspring were separated and put on standard mouse chow (Fig. 1). Treatment was administered as 60 nmol peptide/g formulated diet (Research Diets; New Brunswick, NJ, USA). The vehicle-treated control animals received the same diet but without the peptide. On average, each mouse consumed ~ 2.7 g diet/day.
The complete right hemisphere was immersion-fixed in 4% paraformaldehyde in 0.1 M PBS for 24–48 h, followed by cryoprotection in a 30% sucrose solution at 4 °C overnight. Later, the 40-μm-thick sagittal sections were cut on a freezing microtome. […]
Immunofluorescence staining was performed on free-floating sections, and every 12th brain section was chosen for densitometry and quantification. For immunohistochemical quantification, six brain sections of four animals per group were analyzed. All stainings for fluorescence-intensity quantification were carried out under identical conditions, including all tissue samples for a particular staining processed at the same time, and experimental and control sections photographed under identical settings. […]

The subject of the next assay is APP. Briefly: Western blots of p-APP (Thr668) in hippocampus. The class given is in vivo, mouse. The settings on record: 22-month-old 3xTg-AD mice, normalized with GAPDH, n = 4, P021 diet E8-PND21. Here is the method: as §2
The tissue from the left cerebral hemisphere from each mouse stored at− 80 °C was homogenized in a Teflon-glass homogenizer to generate 10% (w/v) homogenate. […] Each homogenate was boiled in 2× Laemmli sample buffer for 5 min, and protein concentration was measured by PierceTM 660-nm protein assay (Thermo Scientific; Rockford, IL, USA).
The samples were subjected to 10% SDS-PAGE and electro-transferred onto Immobilon-P membranes (EMD Millipore; Billerica, MA, USA). […] Densitometric quantification of protein bands in Western blots was analyzed using Multi Gauge version 3.0 software (FUJIFILM North America; Valhalla, NY, USA).

The next assay concerns Aβ plaques. Briefly: Thioflavin-S-positive plaque load. The settings on record: subiculum, 22-month-old 3xTg-AD mice; 6 sections per mouse, n = 4 mice; P021 diet E8-PND21. In kind it is in vivo. Here is the method:
as §2
Thioflavin-S–positive (TS+) plaque load was quantified on every 12th section (roughly six sections per set) of four animals from 22-month-old groups. A modified thioflavin-S staining protocol was used as follows. Free-floating brain sections were washed in large volumes of distilled water, incubated in 0.25% KMnO4 for 4–5 min, washed with water, and treated with a solution of 1% K2S2O5 and 1% oxalic acid for 40–60 s until the brown color was completely washed out. Sections were then incubated with 0.05% thioflavin-S in water in the dark for 8 min, followed by differentiation in 80% ethanol twice for 1 min each. […] The images were taken by using a Nikon 90i fluorescent microscope, threshold using ImageJ (v.1.46r), and TS+ plaque load was quantified in the hippocampus CA1 and subiculum areas.

The values that follow come from paper PMC7450938, “Prenatal to early postnatal neurotrophic treatment prevents Alzheimer-like behavior and pathology in mice” (Alzheimer's Research & Therapy, 2020).

As to “Ac-DGGL^AG-NH2 [P021, 4-mer CNTF small molecule peptide mimetic to which adamantylated glycine was added at the C-terminal]”, the “discrimination index in the test phase” value in the assay with 3xTg-AD mice [1] is “improved”. The tau pathology entry with 3xTg-AD mice [2] is “significantly reduced”. Besides, the cognitive aging entry with aged Fisher rats is given as “could rescue cognitive aging”. Moreover, the “astrocyte morphology at high magnification” value in the assay on GFAP (CA1, 22-month-old 3xTg-AD mice, 3xTg-Vh astrocytes amoeboid) is “ramified with long processes and small cell body (resting phenotype)”. Besides, the GFAP immunoreactivity result in the assay on GFAP (CA1 region, 22-month-old 3xTg-AD mice) is given as “rescued”. Moreover, in the assay with APP, the “level of phosphorylation of APP at Thr668” value is “rescued”. Besides, the “plaque burden by thioflavin-S staining” value with Aβ plaques is “a significant decrease”.
